Values of other authors, collected in US7001916B1, “Epothilon derivatives, method for the production and the use thereof as pharmaceuticals” (priority 1999, dated 2006).

System: P-glycoprotein-forming multiresistant tumor lines
Conditions: in comparison to taxol

SMILES: C/C(=C\c1csc(C)n1)[C@@H]1C[C@@H]2O[C@@H]2CCC[C@H](C)[C@H](O)[C@@H](C)C(=O)C(C)(C)[C@@H](O)CC(=O)O1 [Epothilone A, epothilone A]
- activity against P-glycoprotein-forming multiresistant tumor lines: significantly higher activity

SMILES: C/C(=C\c1csc(C)n1)[C@@H]1C[C@@H]2O[C@]2(C)CCC[C@H](C)[C@H](O)[C@@H](C)C(=O)C(C)(C)[C@@H](O)CC(=O)O1 [Epothilone B, epothilone B]
- activity against P-glycoprotein-forming multiresistant tumor lines: significantly higher activity
